Laboratory results: patent US11198850B2, “Method for manufacturing telencephalon or progenitor tissue thereof” (RIKEN, priority 2013, dated 2021)

System: hESC-derived hippocampal neurons
Assay: Whole cell patch clamp of hippocampal neurons from dispersion culture of hESC-derived hippocampal tissue (sEPSC)
Type: cell-based, human
Conditions: DNQX 10 μM; voltage held at −60 mV; day 53 after dispersion
Experimental: By a method similar to that in Example 7-1, continuous hippocampal tissues were subjected to dispersion culture. In this experiment, flat plane culture was performed by seeding on a glass or plastic dish, slide and the like. For culture, a glass or plastic surface was coated with poly-D-Lysine (100 μg/ml) at 37° C. for 3 hr, and Laminin 20 μg/ml/Fibronectin 8 μg/ml overnight at 37° C.
The culture medium used for day 1-2 of dispersion was Neurobasal medium (Gibco/Invitrogen) added with 2% B27 supplement without vitamin A (Gibco/Invitrogen), 2 mM L-glutamine, 1% FBS, 20 ng/ml BDNF, 20 ng/ml NT-3, and 10 μM Y-27632. From day 3 of culture, Neurobasal medium (Gibco/Invitrogen) added with 2% B27 supplement without vitamin A (Gibco/Invitrogen), 2 mM L-glutamine, 10% FBS, BDNF 20 ng/ml, and NT-3 20 ng/ml was used and a half amount of the medium was exchanged every three days. […] Also, the cells obtained by dispersion culture by the same method were electrophysiologically analyzed by the Patch clamp technique. […] For sEPSC, time-course electric current was measured when the voltage was maintained at −60 mV, and the medicament used was DNQX (sigma, D0540) at a final concentration of 10 μM. As the action potential, the membrane potential upon […] stimulation was measured.

O=[N+]([O-])c1cc2nc(O)c(O)nc2cc1[N+](=O)[O-] [DNQX]
spontaneous excitatory postsynaptic current (sEPSC): inhibited
